The record followed here is ChEMBL document CHEMBL1145373, “Syntheses of potent, selective, and orally bioavailable indazole-pyridine series of protein kinase B/Akt inhibitors with reduced hypotension” (J Med Chem, 2007).

Data set [1] can be described thus: Half life in mouse at 3 mg/kg, iv. The settings on record: in vivo. Set-up: dose 3 mg/kg, route intravenous. The data set is classed as ADME, organism-based.
Data set [2] can be described thus: Oral bioavailability in mouse at 10 mg/kg, po. The data set is classed as ADME, organism-based. The note with it: in vivo.
A short description of data set [3]: AUC in mouse at 10 mg/kg, po. The data set is classed as ADME, organism-based. Further details: dose 10 mg/kg, route oral. The settings on record: plasma.
A short description of data set [4]: Cytotoxicity against human MIA PaCa cells by MTT assay. The data set is classed as functional, cell-based.
Data set [5] is described as follows: Half life in mouse at 10 mg/kg, po. The data set is classed as ADME, organism-based. Further details: dose 10 mg/kg, route oral. The note with it: in vivo.
The test system of another data set is Mus musculus. Nature of the data set: Toxicity assessed as decrease in MAP in mouse at 150 mg/kg, po. It counts as organism-based. Further details: dose 150 mg/kg, route oral. The note with it: in vivo.
Data set [6] in a line: Toxicity assessed as prolongation of action potential duration in dog purkinje fibres at 20 uM. The data set is classed as tissue-based, Canis lupus familiaris, Purkinje fiber.
Data set [7] has as its target Voltage-gated inwardly rectifying potassium channel KCNH2 (Homo sapiens, UniProt Q12809). As to the kind of experiment: Inhibition of hERG by patch clamp assay. It counts as toxicity.
For data set [8], the target named is cAMP-dependent protein kinase (PKA) (Homo sapiens, UniProt P22694+P17612+P22612). Nature of the data set: Inhibition of PKA. The data set is classed as protein assay.
In data set [9] the test system is Canis familiaris. As to the kind of experiment: Toxicity assessed as decrease in MAP in dog infused at 0.48 mg/kg/min. It counts as organism-based, Canis lupus familiaris. The note with it: in vivo.
Data set [10] in a line: Oral bioavailability in dog at 2.5 mg/kg, po. It counts as ADME, organism-based, Canis lupus familiaris. The settings on record: in vivo.
Data set [11] is described as follows: Oral bioavailability in orally dosed rat. The data set is classed as ADME, organism-based. The note with it: in vivo.
Data set [12] is described as follows: Hypotensive effect in dog femoral artery by femoral artery relaxation assay. It counts as functional, tissue-based, Canis lupus familiaris.
In data set [13] the test system is Canis familiaris. Nature of the data set: Cardiovascular toxicity assessed as induction of acute hypotension in dog at 25 mg/kg, iv by femoral artery relaxation assay. The data set is classed as organism-based, Canis lupus familiaris. Further details: dose 25 mg/kg, route intravenous. The settings on record: in vivo.

Voltage-gated inwardly rectifying potassium channel KCNH2, sequence (Q12809 whole entry): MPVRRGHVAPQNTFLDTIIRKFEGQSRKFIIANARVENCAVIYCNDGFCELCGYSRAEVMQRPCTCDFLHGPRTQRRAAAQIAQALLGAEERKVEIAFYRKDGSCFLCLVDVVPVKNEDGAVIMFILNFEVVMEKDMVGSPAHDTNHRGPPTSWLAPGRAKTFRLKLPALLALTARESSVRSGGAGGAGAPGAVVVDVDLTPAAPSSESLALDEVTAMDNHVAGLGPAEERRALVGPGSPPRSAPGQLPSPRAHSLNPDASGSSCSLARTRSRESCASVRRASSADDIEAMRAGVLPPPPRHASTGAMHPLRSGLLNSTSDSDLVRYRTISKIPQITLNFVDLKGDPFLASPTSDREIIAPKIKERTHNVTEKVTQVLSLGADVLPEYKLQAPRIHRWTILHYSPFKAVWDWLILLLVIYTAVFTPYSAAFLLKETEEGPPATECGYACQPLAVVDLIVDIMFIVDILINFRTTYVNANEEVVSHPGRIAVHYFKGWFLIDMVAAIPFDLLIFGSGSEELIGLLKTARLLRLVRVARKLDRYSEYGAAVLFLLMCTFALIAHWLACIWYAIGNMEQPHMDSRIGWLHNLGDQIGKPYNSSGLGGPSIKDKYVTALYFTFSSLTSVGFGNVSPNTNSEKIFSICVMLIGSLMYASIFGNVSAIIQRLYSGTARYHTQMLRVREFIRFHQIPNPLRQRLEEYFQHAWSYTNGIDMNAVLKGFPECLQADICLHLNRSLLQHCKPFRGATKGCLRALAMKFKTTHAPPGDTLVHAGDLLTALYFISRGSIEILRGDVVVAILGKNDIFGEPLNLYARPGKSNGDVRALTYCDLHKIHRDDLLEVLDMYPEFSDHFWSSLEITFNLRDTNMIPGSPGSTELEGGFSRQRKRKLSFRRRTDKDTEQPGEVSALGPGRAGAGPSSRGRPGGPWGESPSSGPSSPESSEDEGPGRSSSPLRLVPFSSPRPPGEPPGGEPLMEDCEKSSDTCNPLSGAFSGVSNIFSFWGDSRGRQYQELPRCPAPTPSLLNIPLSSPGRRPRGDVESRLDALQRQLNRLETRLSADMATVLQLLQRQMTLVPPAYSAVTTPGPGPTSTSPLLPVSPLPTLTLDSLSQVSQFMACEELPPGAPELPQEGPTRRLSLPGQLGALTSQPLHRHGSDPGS

Consider `Cc1n[nH]c2ccc(-c3cncc(OC[C@@H](N)Cc4ccccc4)c3)cc12`, for which the half-life in data set [1] and in [5] was 1 h each time. Besides, in data set [2], the bioavailability worked out at 70%. In addition, the AUC in [3] was 2 µM·h. In [4], this compound registered an EC50 of 640 nM. Moreover, the Activity in the data set with Mus musculus is given as 31 mmHg; in data set [6], “Toxic”. Moreover, it took 13400 nM to reach half-maximal inhibition in data set [7] (IC50). Take `Cc1n[nH]c2ccc(-c3cncc(OC[C@@H](N)Cc4ccc5c(c4)OCO5)c3)cc12`: in [4], the EC50 is 580 nM. This lies in the sub-micromolar range. As for `Cc1n[nH]c2cnc(-c3cncc(OC[C@@H](N)Cc4cccc(C(F)(F)F)c4)c3)cc12`, the bioavailability in data set [2] turned out to be 25%. The same compound gave an AUC in data set [3] of 1.7 µM·h. Besides, in data set [4], the EC50 worked out at 370 nM. This compound gave a 50% inhibitory concentration (IC50) in data set [8] of 13 nM. Moreover, in [5], the half-life is 1.84 h. In addition, the Activity in data set [6] was -4%. Regarding `Cc1n[nH]c2ccc(-c3cncc(OC[C@@H](N)Cc4ccccc4OC(F)(F)F)c3)cc12`, the EC50 in [4] stood at 230 nM. In other words, the sub-micromolar range. On the same count and under the same terms, for `Cc1ccc(F)cc1C[C@H](N)COc1cncc(-c2ccc3[nH]nc(C)c3c2)c1` the value was 240 nM; for `Cc1n[nH]c2ccc(-c3cncc(OC[C@@H](N)Cc4cccc(OCC5CCN(C)CC5)c4)c3)cc12`, 1250 nM; for `Cc1n[nH]c2ccc(-c3cncc(OC[C@@H](N)Cc4ccc(Br)cc4)c3)cc12`, 700 nM. As to `Cc1n[nH]c2ccc(-c3cncc(OC[C@@H](N)Cc4ccc(F)c(C(F)(F)F)c4)c3)cc12`, the midpoint of the response in [4], the EC50, lay at 600 nM. The EC50 values of the last two compounds are within 1.5-fold of each other. With `Cc1ccc(C[C@H](N)COc2cncc(-c3ccc4[nH]nc(C)c4c3)c2)cc1F`, in data set [4], the EC50 is 330 nM. With `Cc1n[nH]c2ccc(-c3cncc(OC[C@@H](N)Cc4cccc(OC(F)(F)F)c4)c3)cc12`, the EC50 in [4] was 830 nM. On to `Cc1n[nH]c2ccc(-c3cncc(OC[C@@H](N)Cc4ccc(F)c(F)c4F)c3)cc12`, for which the response in [4] was half-maximal at 290 nM (EC50). Against the preceding compound, the EC50 is about 2.9-fold lower. As to `Cc1n[nH]c2ccc(-c3cncc(OC[C@@H](N)Cc4cccc(OCCN5CCOCC5)c4)c3)cc12`, the EC50 in data set [4] is 13000 nM. Still for that read-out and setting: with `Cc1n[nH]c2ccc(-c3cncc(OC[C@@H](N)Cc4ccccc4Br)c3)cc12` the figure was 340 nM. With `Cc1n[nH]c2ccc(-c3cncc(OC[C@@H](N)Cc4cccc(F)c4F)c3)cc12`, in [4], the EC50 was 180 nM. This compound also displayed an IC50 in data set [8] of 9 nM. As to `Cc1n[nH]c2ccc(-c3cncc(OC[C@@H](N)Cc4c[nH]c5ccccc45)c3)cc12` [A-443654], the half-life in data set [1] and in data set [5] was 0.6 h each time. In addition, the Activity with Canis familiaris [9] came out at 60 mmHg; in data set [6], 2.4%. Regarding `Cc1n[nH]c2ccc(-c3cncc(OC[C@@H](N)Cc4cc(C(F)(F)F)ccc4F)c3)cc12`, a half-maximal response in data set [4] (EC50) required 970 nM. This lies in the sub-micromolar range. The same measure, in the same setting: with `Cc1n[nH]c2ccc(-c3cncc(OC[C@@H](N)Cc4cccc(Br)c4)c3)cc12` the figure was 370 nM. The same measure, in the same setting: with `Cc1n[nH]c2ccc(-c3cncc(OC[C@@H](N)Cc4cccc5c4OC(F)(F)O5)c3)cc12` the figure was 680 nM. On to `N[C@H](COc1cncc(-c2cc3cn[nH]c3cn2)c1)Cc1cccc(C(F)(F)F)c1`, for which, in data set [4], a half-maximal effect (EC50) was put at 2390 nM. Further, the IC50 in data set [8] stood at 78 nM. In the case of `N[C@H](COc1cncc(-c2ccc3c(c2)/C(=C\c2ccco2)C(=O)N3)c1)Cc1ccccc1` (stereo in doubt), the half-life in [1] is 1.15 h. Besides, the bioavailability in [2] was found to be 0%. Compound `Cc1n[nH]c2ccc(-c3cncc(OC[C@@H](N)Cc4cccc(OCC5CCCCC5)c4)c3)cc12` returned an EC50 in [4] of 16500 nM. In other words, the double-digit micromolar range. Regarding `COc1ccc(F)cc1C[C@H](N)COc1cncc(-c2ccc3[nH]nc(C)c3c2)c1`, the EC50 in [4] came to 230 nM. Consider `Cc1n[nH]c2ccc(-c3cncc(OC[C@@H](N)Cc4cccc(OCC5CCNCC5)c4)c3)cc12`, for which, in data set [4], the EC50 is 250 nM. As for `Cc1cc(C)c(C[C@H](N)COc2cncc(-c3ccc4[nH]nc(C)c4c3)c2)c(C)c1`, it took 1610 nM to reach a half-maximal effect in [4] (EC50). With `Cc1n[nH]c2ccc(-c3cncc(OC[C@@H](N)Cc4ccc(Cl)c(F)c4)c3)cc12`, the bioavailability in data set [2] amounted to 84%; in [10], 40%; in [11] it was 38%. The compound also displayed an AUC in data set [3] of 2.3 µM·h. Further, the EC50 worked out at 270 nM in data set [4] and 6000 nM in [12]. In [5], this compound gave a half-life of 2.1 h. Also, in data set [6], the Activity was -1.3%. Turning to `Cc1n[nH]c2ccc(-c3cncc(OC[C@@H](N)Cc4cccc(OCCC5CCNCC5)c4)c3)cc12`, the concentration giving a half-maximal response (EC50) in [4] turned out to be 2740 nM. This lies in the single-digit micromolar range. Take `Cc1n[nH]c2ccc(-c3cncc(OC[C@@H](N)Cc4cccc(C(F)(F)F)c4)c3)cc12`: the EC50 in data set [4] stood at 600 nM. Further, in data set [8], the IC50 stood at 5 nM. In turn, `Cc1n[nH]c2ccc(-c3cncc(OC[C@@H](N)Cc4ccc(Cl)c(Cl)c4)c3)cc12` came in with an EC50 in data set [4] of 490 nM. `Cc1n[nH]c2ccc(-c3cncc(OC[C@@H](N)Cc4cc(F)cc(C(F)(F)F)c4)c3)cc12` had an EC50 in data set [4] of 1380 nM. Consider `Cc1n[nH]c2ccc(-c3cncc(OC[C@@H](N)Cc4cccc(F)c4)c3)cc12`, for which, in data set [4], the concentration for a half-maximal effect (EC50) was found to be 260 nM. Still for that read-out and setting: for `Cc1n[nH]c2ccc(-c3cncc(OC[C@@H](N)Cc4ccc(OC(F)(F)F)cc4)c3)cc12` the value was 1700 nM; for `Cc1n[nH]c2ccc(-c3cncc(OC[C@@H](N)Cc4ccc5c(c4)OC(F)(F)C(F)(F)O5)c3)cc12`, 3700 nM; for `Cc1n[nH]c2ccc(-c3cncc(OC[C@@H](N)Cc4ccc(Br)cc4F)c3)cc12`, 900 nM. For `Cc1n[nH]c2ccc(-c3cncc(OC[C@@H](N)Cc4ccccc4Cl)c3)cc12`, the EC50 in data set [4] amounted to 380 nM. On the same count and under the same terms, with `Cc1n[nH]c2ccc(-c3cncc(OC[C@@H](N)Cc4cccc(I)c4)c3)cc12` the figure was 810 nM; with `Cc1n[nH]c2ccc(-c3cncc(OC[C@@H](N)Cc4cccc(Cl)c4Cl)c3)cc12`, 210 nM; with `Cc1n[nH]c2ccc(-c3cncc(OC[C@@H](N)Cc4ccc(F)cc4F)c3)cc12`, 930 nM. `Cc1n[nH]c2ccc(-c3cncc(OC[C@@H](N)Cc4cccc(Cl)c4)c3)cc12`: the response in [4] was half-maximal at 450 nM (EC50). The same measure, in the same setting: for `Cc1n[nH]c2ccc(-c3cncc(OC[C@@H](N)Cc4cccc(OCCN)c4)c3)cc12` the value was 4800 nM. For the compound `Cc1n[nH]c2cnc(-c3cncc(OC[C@@H](N)Cc4cccc(F)c4F)c3)cc12`, in data set [4], the EC50 came out at 260 nM. The same compound yielded an IC50 in [8] of 7 nM. In turn, `N[C@H](COc1cncc(-c2ccc3c(c2)/C(=C/c2ccc[nH]2)C(=O)N3)c1)Cc1ccccc1` had a half-life in data set [1] of 0.5 h. Besides, the bioavailability in data set [2] was determined as 0%. Besides, it took 354000 nM to reach a half-maximal effect in data set [12] (EC50). Also, the Activity in the data set on Canis familiaris [13] turned out to be 30 mmHg. `Cc1n[nH]c2ccc(-c3cncc(OC[C@@H](N)Cc4ccc(F)c(Cl)c4)c3)cc12` registered an EC50 in data set [4] of 670 nM.

Regarding `Cc1n[nH]c2ccc(-c3cncc(OC[C@@H](N)Cc4ccc(C(F)(F)F)cc4F)c3)cc12`, the EC50 in [4] was 2900 nM. Take `Cc1cc(F)ccc1C[C@H](N)COc1cncc(-c2ccc3[nH]nc(C)c3c2)c1`: in [4], the response was half-maximal at 340 nM (EC50). In data set [4], `Cc1n[nH]c2ccc(-c3cncc(OC[C@@H](N)Cc4ccc(Br)c(F)c4)c3)cc12` returned an EC50 of 430 nM. This EC50 and that of the compound before are within 1.5-fold of each other. Compound `Cc1n[nH]c2ccc(-c3cncc(OC[C@@H](N)Cc4ccc(C(F)(F)F)c(F)c4)c3)cc12` yielded an EC50 in [4] of 1430 nM.

As for `Cc1n[nH]c2ccc(-c3cncc(OC[C@@H](N)Cc4ccc(Cl)cc4)c3)cc12`, the midpoint of the response in data set [4], the EC50, lay at 440 nM. With `N[C@H](COc1cncc(-c2cc3c(Cl)n[nH]c3cn2)c1)Cc1cccc(C(F)(F)F)c1`, the EC50 in data set [4] worked out at 1380 nM. For the same compound, in [8], the IC50 was determined as 15 nM.

Compound `Cc1cc(C[C@H](N)COc2cncc(-c3ccc4[nH]nc(C)c4c3)c2)ccc1Br` had an EC50 in data set [4] of 1260 nM.

As for `Cc1cc(C[C@H](N)COc2cncc(-c3ccc4[nH]nc(C)c4c3)c2)ccc1F`, in data set [4], the EC50 was 1070 nM. Consider `Cc1n[nH]c2ccc(-c3cncc(OC[C@@H](N)Cc4cc(Cl)cc(Cl)c4)c3)cc12`, for which the half-maximal effective concentration (EC50) in data set [4] was 1000 nM.
